From patent US20250235501A1, “Methods and Compositions for Treating or Preventing Neurological Injury or Neurological Disorders” (University of Connecticut, priority 2024, published 2025)

Tested on: ERK1/2 and CREB activities (pERK1/2, pCREB)
Test: ERK1/2 and CREB activities in cultured neurons (WB)
Assay type: cell-based, mouse
Conditions: WT neurons pre-incubated with peptide overnight, vs control
Method: FIGS. 7F-7H show the effects of TAT-EE3 on ERK1/2 and CREB activities in cultured neurons isolated from gM2KO and nM2KO mice, and WT littermates. WT neurons were treated with TAT-EE3 or TAT-SC for overnight before the experiments. Neurons were incubated for 1 h before experiments with 1) control (PBS), 2) NMDA (10 μM) to activate synaptic and extrasynaptic NMDARs, and 3) 4-AP 2.5 mM plus biccuculine (Bic) 50 μM (4-AP/Bic) to activate synaptic NMDARs. […] FIGS. 7G and 7H show the quantification of the active CERB and ERK1/2 in each group under three different treatment conditions (***, p<0.001; ANOVA, Bonferroni's test; mean±SEM, n=3).
Mice pups at P0 were euthanized based on animal protocol. Whole brain was dissected out immediately and immersed in ice-cold Hank's Balanced Salt Solution (HBSS). Meninges were removed thoroughly, and tissue of different brain areas was taken based on purposes. Brain tissue was cut into small pieces and digested with 0.25% trypsin (Thermal Fisher Scientific, 15090-046) in HBSS at 37° C. for 20 min. Digestion solution was quickly removed, and tissue pellets are washed with Neurobasal® Medium (Thermal Fisher Scientific, 21103-049) for 3 times. Cells were resuspended with appropriate amount of Neurobasal® Medium supplemented with 2% B27® supplement (Thermal Fisher Scientific, 17504-044), 3% horse serum (Thermal Fisher Scientific, 16050114), 0.25% L-glutamine (Thermal Fisher Scientific, 25030-081) and 1% penicillin/streptomycin (Thermal Fisher Scientific, 15140-122). Isolated cells were counted and plated on coverslips pre-coated with poly-L-lysine (Sigma-Aldrich, P4707) at a density about 500×10^3 cells/cm2 for OGD and H2O2 treatment, and 100×10^3 cells/cm2 for current recording. Cytosine arabinoside (Sigma-Aldrich, C1768) was added to maintain a concentration at 1 μM to inhibit the proliferation of non-neuronal cells. 24 h after plating, culture medium was changed to Neurobasal® Medium supplemented with 2% B27® supplement, 0.25% L-glutamine and 1% penicillin/streptomycin. The concentration of Cytosine arabinoside (araC) was increased to 2 μM. Medium was changed every 3 days. OGD and H2O2 treatment was conducted at 7th day of culture, and current recording was conducted at 7th, 10th and 14th day of culture.
NP-40/Triton lysis buffer ([…], 1% Triton™ X-100, 150 mM NaCl, 1 mM EDTA, 50 mM Tris, pH=8.0) containing proteinase inhibitors and phosphatase inhibitors was used to lyse both cultured cells and frozen brain tissue. […] Protein concentration was measured using Pierce™ Rapid Gold BCA Protein Assay Kit.
30-50 μg of total protein was loaded and separated proteins were transferred to Nitrocellulose membranes. […] Band intensity was quantified using ImageJ software and normalized with appropriate loading controls.

[1] = 4-AP 2.5 mM plus bicuculline 50 μM 1 h

TAT-EE3: membrane permeable disrupting peptide, sequence YGRKKRRQRRREEDTDSSEEMLALAEE (SEQ ID NO: 4)
increased: pCREB level after 4-AP/Bic treatment [1] | pERK1/2 level after 4-AP/Bic treatment [1] | pCREB level after NMDA treatment (NMDA 10 μM 1 h) | pERK1/2 level after NMDA treatment (NMDA 10 μM 1 h)
